Experimental data taken from patent EP2253620B1, “SUBSTITUTED 3-CYANOQUINOLINES AS PROTEIN TYROSINE KINASES INHIBITORS” (Wyeth Holdings LLC, priority 1998, dated 2000).

Columns and labels:
Type in all cases: biochemical
[1] = biological target: T1, Kinase insert Domain containing Receptor (KDR: the catalytic domain of the VEGF receptor) (Homo sapiens, UniProt P35968); assay: Inhibition of Kinase insert Domain containing Receptor (KDR) tyrosine kinase activity
T1 construct: KDR: the catalytic domain of the VEGF receptor
Source text: Inhibition of Kinase insert Domain containing Receptor (KDR: the catalytic domain of the VEGF receptor)
In this standard pharmacological test procedure, KDR protein is mixed, in the presence or absence of a inhibitor compound, with a substrate peptide to be phosphorylated (a copolymer of glutamic acid and tyrosine, E:Y :: 4:1) and other cofactors such as Mg^++ and sodium vanadate (a protein tyrosine phosphatase inhibitor) in an appropriate buffer to maintain pH (7.2). ATP and a radioactive tracer (either P^32- or P^33- labeled ATP) is then add to initiate phosphorylation. After incubation, the radioactive phosphate associated with the acid-insoluble fraction of the assay mixture is then quantified as reflection of substrate phosphorylation. […] Multiple entries for a given compound indication it was tested multiple times.

[2] = biological target: T2, epidermal growth factor receptor kinase (Homo sapiens, UniProt P00533); assay: Inhibition of Epidermal Growth Factor Receptor Kinase (EGF-R) using recombinant enzyme; conditions: averages of the individual determinations
T2 construct: containing the EGFR cDNA encoding amino acids 645 - 1186 preceded by Met-Ala-(His)6; made in house; host or cells: Sf9 insect cells, recombinant baculovirus vHcEGFR52
Protocol: Representative test compounds were evaluated for their ability to inhibit the phosphorylation of the tyrosine residue of a peptide substrate catalyzed by the enzyme epidermal growth factor receptor kinase. […] The enzyme used in this assay is the His-tagged cytoplasmic domain of EGFR. A recombinant baculovirus (vHcEGFR52) was constructed containing the EGFR cDNA encoding amino acids 645 - 1186 preceded by Met-Ala-(His)6. Sf9 cells in 100 mm plates were infected at an moi of 10 pfu/cell and cells were harvested 48 h post infection. A cytoplasmic extract was prepared using 1% Triton X-100 and applied to Ni-NTA column. After washing the column with 20 mM imidazole, HcEGFR was eluted with 250 mM imidazole (in 50 mM Na2HPO4, pH 8.0, 300 mM NaCl). Fractions collected were dialyzed against 10 mM HEPES, pH 7.0, 50 mM NaCl, 10% glycerol, 1ug/mL antipain and leupeptin and 0.1 mM Pefabloc SC. The protein was frozen in dry ice/methanol and stored -70°C.
Test compounds were made into 10 mg/mL stock solutions in 100% dimethylsulfoxide (DMSO). Prior to experiment, stock solutions were diluted to 500 uM with 100% DMSO and then serially diluted to the desired concentration with HEPES buffer (30 mM HEPES pH 7.4).
For the enzyme reaction, 10 µL of each inhibitor (at various concentrations) were added to each well of a 96-well plate. To this was added 3 µL of enzyme (1:10 dilution in 10mM HEPES, pH 7.4 for final conc. of 1:120). This was allowed to sit for 10 min on ice and was followed by the addition of 5 µl peptide (80 µM final conc.), 10 µl of 4X Buffer (Table A), 0.25 µL ^33P-ATP and 12 µL H2O. The reaction was allowed to run for 90 min at room temperature and was followed by spotting the entire volume on to precut P81 filter papers. The filter discs were washed 2X with 0.5% phosphoric acid and radioactivity was measured using a liquid scintillation counter.
The % inhibition of the test compound was determined for at least three different concentrations and the IC50 value was evaluated from the dose response curve. […] CPM(control) is in units of counts per minute and was a number expressing the amount of radiolabled ATP (g-^33P) incorporated into the RR-SRC peptide substrate by the enzyme after 90 minutes at room temperature in the absence of test compound as measured by liquid scintillation counting. The CPM values were corrected for the background counts produced by ATP in the absence of the enzymatic reaction. The IC50 values in TABLE 1 are averages of the individual determinations.

[3] = biological target: Mek and Erk (Homo sapiens, UniProt P28482+Q02750); assay: Mitogen Activated Protein Kinase (MAPK) coupled assay (Mek-Erk); conditions: coupled MEK 1 / ERK2; separate entries = separate tests; read-out: Mek and Erk
Protocol: Mitogen Activated Protein Kinase (MAPK) Assay
To evaluate inhibitors of the MAP (mitogen activated protein) kinase a two component coupled standard pharmacological test procedure, which measures phosphorylation of a serine/threonine residue in an appropriate sequence in the substrate in the presence and absence of a putative inhibitor, was used. Recombinant human MEK 1 (MAPKK) was first used to activate recombinant human ERK2 (MAPK) and the activated MAPK (ERK) was incubated with substrate (MBP peptide or MYC peptide) in the presence of ATP, Mg^+2 and radiolabeled ^33P ATP. The phosphorylated peptide was captured on a P 81 phosphocellulose filter (paper filter or embedded in microtiter plate) washed and counted by scintillation methods.
The peptide substrates used in the assay are MBP, peptide substrate ([…]), or synthetic Myc substrate, ([…]•5 TFA. The recombinant enzymes used were prepared as GST fusion proteins of human ERK 2 and human MEK 1. Inhibitor samples were prepared as 10X stocks in 10% DMSO and an appropriate aliquot was used to deliver either 10 ug/ml for a single point screening dose or 100, 10, 1, and 0.1 uM final concentration for a dose response curve. Final DMSO concentrations were less than or equal to 1%.
The reaction was run as follows in 50 mM Tris kinase buffer, pH 7.4 in a reaction volume of 50 ul. The appropriate volume of kinase buffer and inhibitor sample was added to the tube. Appropriate dilution of enzyme was delivered to give 2-5 ug recombinant MAPK (Erk ) per tube. The inhibitor was incubated with MAPK (Erk) for 30 min at 0 deg. C. Recombinant Mek (MAPKK) ( 0.5-2.5 ug) or fully activated Mek (0.05-0.1 units) was added to activate the Erk and incubated for 30 min at 30° C. Then substrate and gamma ^33P ATP was were added to give a final concentration of 0.5- 1 mM MBPP or 250-500 uM Myc; 0.2-0.5 uCi gamma P 33 ATP/tube; 50 µM ATP final concentration. Samples were incubated at 30°C for 30 minutes and the reaction was stopped by adding 25 µl of ice cold 10 %TCA .After samples were chilled on ice for 30 min, 20 µl of sample was transferred onto P 81 phosphocellulose filter paper or appropriate MTP with embedded P 81 filter. Filter papers or MTP were washed 2 times with a large volume of 1% acetic acid, then 2 times with water. The filters or MTP were briefly air dried before addition of scintillant and samples were counted in the appropriate scintillation counter set up for reading ^33P isotope. Samples included a positive control (activated enzyme plus substrate); a no enzyme control; a no substrate control; samples with different concentrations of putative inhibitor; and samples with reference inhibitors (other active compounds or non-specific inhibitors such as staurosporine or K252 B).
The raw data was captured as cpm. Sample replicates were averaged and corrected for background count. Mean cpm data was tabulated by group and % inhibition by a test compound was calculated as (corrected cpm control- corrected. cpm sample/control) X 100 = % inhibition. […] The results obtained for representative compounds of this invention are listed in TABLE 2 where there may be separate entries for the same compound; this is an indication that the compound was evaluated more than one time.

[4] = biological target: Epithelial Cell Kinase (ECK) (Homo sapiens, UniProt P29317); assay: Inhibition of Epithelial Cell Kinase (ECK) tyrosine kinase activity
Protocol: In this standard pharmacological test procedure, a biotinylated peptide substrate is first immobilized on neutravidin-coated microtiter plates. The test drug, the Epithelial Cell Kinase (ECK), Mg^++, sodium vanadate (a protein tyrosine phosphatase inhibitor), and an appropriate buffer to maintain pH (7.2) are then added to the immobilized substrate-containing microtiter wells. ATP is then added to initiate phosphorylation. After incubation, the assay plates are washed with a suitable buffer leaving behind phosphorylated peptide which is exposed to horse radish peroxidase (HRP)-conjugated anti-phosphotyrosine monoclonal antibody. The antibody-treated plates are washed again and the HRP activity in individual wells is quantified as a reflection of degree of substrate phosphorylation. […] Multiple entries for a given compound indication it was tested multiple times.

Chain of Epithelial Cell Kinase (ECK) (P29317 24-976, species assumed): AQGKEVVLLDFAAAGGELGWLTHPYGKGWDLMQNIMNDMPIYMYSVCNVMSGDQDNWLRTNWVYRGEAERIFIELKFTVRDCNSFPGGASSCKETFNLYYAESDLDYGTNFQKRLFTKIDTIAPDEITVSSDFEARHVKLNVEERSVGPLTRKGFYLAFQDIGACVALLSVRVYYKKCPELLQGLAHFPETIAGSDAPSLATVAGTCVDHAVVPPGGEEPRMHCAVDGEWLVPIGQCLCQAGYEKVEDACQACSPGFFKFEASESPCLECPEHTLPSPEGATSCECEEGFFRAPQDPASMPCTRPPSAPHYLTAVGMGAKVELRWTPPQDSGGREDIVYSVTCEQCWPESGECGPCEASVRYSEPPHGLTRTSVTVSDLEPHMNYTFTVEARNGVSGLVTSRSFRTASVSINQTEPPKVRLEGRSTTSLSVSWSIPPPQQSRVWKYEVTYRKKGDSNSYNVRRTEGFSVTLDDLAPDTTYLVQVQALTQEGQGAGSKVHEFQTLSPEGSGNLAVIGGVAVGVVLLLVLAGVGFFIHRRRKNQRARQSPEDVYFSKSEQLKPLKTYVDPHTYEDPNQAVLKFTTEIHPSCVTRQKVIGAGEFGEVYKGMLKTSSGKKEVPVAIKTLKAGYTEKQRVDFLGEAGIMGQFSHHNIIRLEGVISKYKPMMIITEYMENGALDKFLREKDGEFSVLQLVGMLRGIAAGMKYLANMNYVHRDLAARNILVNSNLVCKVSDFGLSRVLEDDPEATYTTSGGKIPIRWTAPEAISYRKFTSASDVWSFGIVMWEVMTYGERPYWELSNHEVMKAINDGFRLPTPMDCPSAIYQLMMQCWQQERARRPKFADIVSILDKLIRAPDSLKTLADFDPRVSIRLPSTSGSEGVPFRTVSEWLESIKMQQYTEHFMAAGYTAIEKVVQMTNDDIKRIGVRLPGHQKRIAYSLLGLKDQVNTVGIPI
T1 sequence (P35968 834-1162 limits assumed): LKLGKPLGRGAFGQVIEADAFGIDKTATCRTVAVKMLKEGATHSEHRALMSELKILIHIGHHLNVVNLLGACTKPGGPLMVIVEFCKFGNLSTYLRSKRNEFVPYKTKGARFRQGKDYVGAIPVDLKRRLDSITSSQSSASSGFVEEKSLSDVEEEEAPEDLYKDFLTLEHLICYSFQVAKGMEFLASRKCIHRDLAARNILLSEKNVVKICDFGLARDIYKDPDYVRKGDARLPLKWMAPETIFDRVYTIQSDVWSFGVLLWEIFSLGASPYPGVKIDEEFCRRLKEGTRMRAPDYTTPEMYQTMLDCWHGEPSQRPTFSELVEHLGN
Chain of Mek and Erk (Q02750 whole entry): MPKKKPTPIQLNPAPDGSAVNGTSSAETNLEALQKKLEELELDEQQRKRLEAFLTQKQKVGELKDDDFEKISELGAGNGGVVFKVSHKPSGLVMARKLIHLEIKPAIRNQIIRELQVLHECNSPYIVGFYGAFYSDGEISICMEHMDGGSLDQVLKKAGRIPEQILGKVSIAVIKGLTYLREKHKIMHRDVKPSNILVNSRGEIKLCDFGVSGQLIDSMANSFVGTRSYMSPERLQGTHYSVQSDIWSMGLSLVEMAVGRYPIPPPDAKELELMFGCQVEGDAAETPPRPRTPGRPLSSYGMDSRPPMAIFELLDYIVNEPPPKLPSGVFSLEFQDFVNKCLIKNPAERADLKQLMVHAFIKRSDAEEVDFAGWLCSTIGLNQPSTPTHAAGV
Chain of Mek and Erk (P28482 2-360): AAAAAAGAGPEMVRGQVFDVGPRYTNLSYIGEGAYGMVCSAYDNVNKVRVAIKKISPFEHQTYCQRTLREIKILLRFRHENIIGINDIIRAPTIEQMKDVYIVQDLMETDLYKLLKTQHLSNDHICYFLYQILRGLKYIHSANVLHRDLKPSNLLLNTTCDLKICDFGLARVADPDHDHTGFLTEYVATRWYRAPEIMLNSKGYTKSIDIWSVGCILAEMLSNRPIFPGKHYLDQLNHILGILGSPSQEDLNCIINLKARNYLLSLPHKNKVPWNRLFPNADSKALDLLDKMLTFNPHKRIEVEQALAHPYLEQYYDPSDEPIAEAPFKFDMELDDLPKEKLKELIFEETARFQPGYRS
T2 sequence (P00533 669-1210): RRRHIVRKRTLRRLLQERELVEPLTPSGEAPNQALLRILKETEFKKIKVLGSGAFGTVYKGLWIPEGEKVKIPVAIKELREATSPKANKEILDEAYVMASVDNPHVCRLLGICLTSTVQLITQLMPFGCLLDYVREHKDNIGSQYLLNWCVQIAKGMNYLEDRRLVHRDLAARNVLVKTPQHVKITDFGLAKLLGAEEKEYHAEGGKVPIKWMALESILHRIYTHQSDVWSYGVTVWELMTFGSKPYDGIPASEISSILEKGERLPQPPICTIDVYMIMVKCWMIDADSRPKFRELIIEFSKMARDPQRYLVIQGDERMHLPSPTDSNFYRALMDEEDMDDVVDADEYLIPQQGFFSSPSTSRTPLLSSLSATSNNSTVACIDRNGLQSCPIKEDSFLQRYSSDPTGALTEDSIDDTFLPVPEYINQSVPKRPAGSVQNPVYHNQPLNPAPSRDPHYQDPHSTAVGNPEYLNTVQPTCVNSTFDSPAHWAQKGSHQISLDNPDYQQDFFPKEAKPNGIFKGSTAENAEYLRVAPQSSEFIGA

Structure (SMILES): N#Cc1cnc2ccc(NC(=O)C#CCN3CCC4(CC3)OCCO4)cc2c1Nc1cccc(Br)c1 [Example 82, 4-(1,4-Dioxa-8-azaspiro[4,5]dec-8-yl)but-2-ynoic Acid [4-(3-Bromophenylamino)-3-cyanoquinolin-6-yl] Amide]
- IC50 [1]: > 1830 nM
- IC50 [2]: 50 nM
- IC50 [3]: 30000 nM
- IC50 [4]: > 1830 nM
